Source: PubChem BioAssay AID1963445 (Molecular Pharmacology Branch, DTP, NCI, 2024)
“And” between values parts separate entries of the source, which are not always exact repeats. Equal entries are not always repeated. One block for each compound: values may come before it.

Test system: MCF7 complex spheroid growth, % test/control
Assay: Anticancer human tumor MCF7 cell line growth inhibition [Asc];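 also: spheroids exposed to compounds for 7 days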;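 as to viability, T/C: 100% = DMSO vehicle control wells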
Conditions: for viability, T/C: stronger effect = lower value
Method in brief: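 Spheroid model: tumor line + HUVEC + hMSC. Single agents and combinations; top conc. at/near clinical Cmax (10 microM if undetermined), half-log dilutions. DMSO stocks at 800-fold test concentration.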

IC50 (curve of first compound, second compound 0.0316 µM): 76.6 nM | IC50 (curve of first compound, second compound 0.1 µM): 51.6 nM | IC50 (curve of first compound, second compound 0.316 µM): 35.1 nM | IC50 (curve of first compound, second compound 1 µM): 39.8 nM | IC50 (curve of first compound, second compound 3.16 µM): 27.3 nM | IC50 (curve of first compound, second compound 10 µM): 62.6 nM
Structure (SMILES): NC(=O)C(=Cn1cnc(-c2cc(C(F)(F)F)cc(C(F)(F)F)c2)n1)c1cncnc1 + Cc1c(S(C)(=O)=O)c(-c2cc(F)cc(N3CCN(c4ccc(NS(=O)(=O)c5ccc(NC(CCN6CCC(C(=O)OCCCP(=O)(O)O)CC6)CSc6ccccc6)c(S(=O)(=O)C(F)(F)F)c5)cc4)CC3)c2)c(-c2ccc(Cl)cc2)n1C(C)C
viability, T/C (second compound 0.0316 µM, first compound 0.000949 µM): 94.4% | viability, T/C (second compound 0.0316 µM, first compound 0.003 µM): 88% | viability, T/C (second compound 0.0316 µM, first compound 0.00949 µM): 89.3% | viability, T/C (second compound 0.0316 µM, first compound 0.03 µM): 89.7% | viability, T/C (second compound 0.0316 µM, first compound 0.0949 µM): 40.9% | viability, T/C (second compound 0.0316 µM, first compound 0.3 µM): 16.8% | viability, T/C (second compound 0.1 µM, first compound 0.000949 µM): 87.6% | viability, T/C (second compound 0.1 µM, first compound 0.003 µM): 82.8% | viability, T/C (second compound 0.1 µM, first compound 0.00949 µM): 81.8% | viability, T/C (second compound 0.1 µM, first compound 0.03 µM): 76.4% | viability, T/C (second compound 0.1 µM, first compound 0.0949 µM): 20.3% | viability, T/C (second compound 0.1 µM, first compound 0.3 µM): 15.7% | viability, T/C (second compound 0.316 µM, first compound 0.000949 µM): 90.5% | viability, T/C (second compound 0.316 µM, first compound 0.003 µM): 87.4% | viability, T/C (second compound 0.316 µM, first compound 0.00949 µM): 70.1% | viability, T/C (second compound 0.316 µM, first compound 0.03 µM): 60.9% | viability, T/C (second compound 0.316 µM, first compound 0.0949 µM): 19.7% | viability, T/C (second compound 0.316 µM, first compound 0.3 µM): 16.4% | viability, T/C (second compound 1 µM, first compound 0.000949 µM): 89% | viability, T/C (second compound 1 µM, first compound 0.003 µM): 75.8% | viability, T/C (second compound 1 µM, first compound 0.00949 µM): 73.8% | viability, T/C (second compound 1 µM, first compound 0.03 µM): 61% | viability, T/C (second compound 1 µM, first compound 0.0949 µM): 13.9% | viability, T/C (second compound 1 µM, first compound 0.3 µM): 18.8% | viability, T/C (second compound 3.16 µM, first compound 0.000949 µM): 70.4% | viability, T/C (second compound 3.16 µM, first compound 0.003 µM): 73.4% | viability, T/C (second compound 3.16 µM, first compound 0.00949 µM): 77% | viability, T/C (second compound 3.16 µM, first compound 0.03 µM): 47.9% | viability, T/C (second compound 3.16 µM, first compound 0.0949 µM): 22.5% | viability, T/C (second compound 3.16 µM, first compound 0.3 µM): 18.4% | viability, T/C (second compound 10 µM, first compound 0.000949 µM): 121% | viability, T/C (second compound 10 µM, first compound 0.003 µM): 131% | viability, T/C (second compound 10 µM, first compound 0.00949 µM): 102% | viability, T/C (second compound 10 µM, first compound 0.03 µM): 90.6% | viability, T/C (second compound 10 µM, first compound 0.0949 µM): 25.5% | viability, T/C (second compound 10 µM, first compound 0.3 µM): 16.8%

IC50 (curve of compound): 1940 nM and 4850 nM and 4360 nM
Structure (SMILES): C=C(F)C(=O)N1CCN(c2nc(OCC3CCCN3C)nc3c2CCN(c2cccc4cccc(Cl)c24)C3)CC1CC#N (centres undefined)
viability, T/C (compound 0.0316 µM): 82.4% and 98.6% and 109% | viability, T/C (compound 0.1 µM): 92.8% and 99.8% and 107% | viability, T/C (compound 0.316 µM): 90.7% and 97.9% and 95.7% | viability, T/C (compound 1 µM): 75.4% and 92.3% and 89.9% | viability, T/C (compound 3.16 µM): 31% and 80% and 72.3% | viability, T/C (compound 10 µM): 0.38% and 0.28% and 0.27%
